From patent US20240174680A1, “CDK2 INHIBITORS AND METHODS OF USING THE SAME” (Cedilla Therapeutics, Inc., priority 2021, published 2024) come the findings set out here.

SMILES strings stand for the structures.

The target of this experiment is CDK2/Cyclin E1 (Homo sapiens, UniProt P24941). Put plainly: CDK2/Cyclin E1 Caliper LabChip EZ Reader mobility shift assay. On the set-up: purchased Eurofins 14-475. The following applies: read-out: Caliper Assay (CDK2/CCNE1): IC50. The class given is biochemical. The method, boiled down:
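Mobility-shift kinase assay: compound titrations preincubated 30 min with enzyme and ATP, reaction started with 5-FAM-QSPKKG-CONH2 peptide. Final 2.5 nM CDK2/Cyclin E1, 100 μM ATP, 1.5 μM peptide, HEPES pH 7.5; stopped with EDTA after 100 min. IC50 from four-parameter fit of normalized conversion ratio.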

As for `C[C@@H](OCC1CCCCC1)[C@H](NC(=O)[C@@H]1CN(C(=O)c2cnn(Cc3ccccc3)c2)CC12CN(C(=O)[C@H]1CC1(C)C)C2)C(N)=O` [I-200], the IC50 was not above 10 nM.
As for `CC1(C)C[C@@H]1C(=O)N1CC2(CN(C(=O)c3cnn(Cc4ccccc4)c3)C[C@@H]2C(=O)N[C@@H]2CC[C@@H]2O)C1` [I-201A], the figure is more than 10000 nM; as for `CC1(C)C[C@@H]1C(=O)N1CC2(CN(C(=O)c3cnn(Cc4ccccc4)c3)C[C@H]2C(=O)N[C@@H]2CC[C@@H]2O)C1` [I-201B], more than 10000 nM; as for `CNC(=O)[C@@H](NC(=O)[C@@H]1CN(C(=O)c2cnn(Cc3ccccc3)c2)CC12CN(C(=O)[C@H]1CC1(C)C)C2)[C@@H](C)OCC1CCC(F)(F)CC1` [I-202], not above 10 nM.
`C[C@@H](OCC1CCC(F)(F)CC1)[C@H](NC(=O)[C@@H]1CN(C(=O)c2cnn(Cc3ccc(F)cc3)c2)CC12CN(C(=O)[C@H]1CC1(C)C)C2)C(N)=O` [I-203]: the IC50 is not above 10 nM.
In the case of `CNC(=O)[C@@H](NC(=O)[C@@H]1CN(C(=O)c2cnn(Cc3ccccc3)c2)CC12CN(C(=O)[C@H]1CC1(C)C)C2)[C@@H](C)OCC(F)(F)F` [I-204] it was 1000 to 10000 nM.
As to `CNC(=O)[C@@H](NC(=O)[C@@H]1CN(C(=O)c2cnn(Cc3ccccc3)c2)CC12CN(C(=O)[C@H]1CC1(C)C)C2)[C@@H](C)OCC1(C(F)(F)F)CC1` [I-205A], the IC50 lay in the range of 100 to 1000 nM.
As for `CNC(=O)[C@@H](NC(=O)[C@H]1CN(C(=O)c2cnn(Cc3ccccc3)c2)CC12CN(C(=O)[C@H]1CC1(C)C)C2)[C@@H](C)OCC1(C(F)(F)F)CC1` [I-205B], the figure is 1000 to 10000 nM.
On to `CC1(C)C[C@@H]1C(=O)N1CC2(CN(C(=O)c3cnn(Cc4ccccc4)c3)C[C@H]2C(=O)N[C@H]2CCN(c3ccccc3)C2)C1` [I-206], for which the IC50 lay within 100 to 1000 nM.
As to `CC1(C)C[C@@H]1C(=O)N1CC2(CN(C(=O)c3cnn(Cc4ccccc4)c3)C[C@H]2C(=O)N[C@@H]2CCN(c3ccccc3)C2)C1` [I-207], the IC50 was in the range of 1000 to 10000 nM.
In the case of `CNC(=O)[C@@H](NC(=O)[C@@H]1CN(C(=O)c2sc(Cl)nc2C)CC12CN(C(=O)[C@H]1CC1(C)C)C2)[C@@H](C)OCC1CCCCC1` [I-208A] it was 10 to 100 nM; in that of `CNC(=O)[C@@H](NC(=O)[C@H]1CN(C(=O)c2sc(Cl)nc2C)CC12CN(C(=O)[C@H]1CC1(C)C)C2)[C@@H](C)OCC1CCCCC1` [I-208B], 100 to 1000 nM.
On to `COC(=O)[C@H](CO)NC(=O)[C@@H]1CN(C(=O)c2cnn(Cc3ccccc3)c2)CC12CN(C(=O)[C@H]1CC1(C)C)C2` [I-209A], for which the IC50 fell in the range of 1000 to 10000 nM.
In the case of `COC(=O)[C@H](CO)NC(=O)[C@H]1CN(C(=O)c2cnn(Cc3ccccc3)c2)CC12CN(C(=O)[C@H]1CC1(C)C)C2` [I-209B] it was more than 10000 nM; in that of `CC1(C)C[C@@H]1C(=O)N1CC2(CN(C(=O)c3cnn(Cc4ccccc4)c3)C[C@H]2C(=O)N2CCO[C@@H](Cc3ccccc3)C2)C1` [I-210], more than 10000 nM.
For `CC1(C)C[C@@H]1C(=O)N1CC2(CN(C(=O)c3cnn(Cc4ccccc4)c3)C[C@H]2C(=O)N[C@@H]2CCCN(CC3CCCCC3)C2)C1` [I-212], the IC50 lay within 1000 to 10000 nM.
For the molecule `CNC(=O)[C@@H](NC(=O)[C@@H]1CN(C(=O)c2sc(C)nc2C)CC12CN(C(=O)[C@H]1CC1(C)C)C2)[C@@H](C)OCC1CCCCC1` [I-213A], the IC50 lay within 10 to 100 nM.
With `CNC(=O)[C@@H](NC(=O)[C@H]1CN(C(=O)c2sc(C)nc2C)CC12CN(C(=O)[C@H]1CC1(C)C)C2)[C@@H](C)OCC1CCCCC1` [I-213B], the IC50 is more than 10000 nM.
On to `CC1(C)C[C@@H]1C(=O)N1CC2(CN(C(=O)c3cnn(Cc4ccccc4)c3)C[C@H]2C(=O)N2CCC(OCc3ccccc3)CC2)C1` [I-214], for which the IC50 was 1000 to 10000 nM.
For the molecule `CC1(C)C[C@@H]1C(=O)N1CC2(CN(C(=O)c3cnn(Cc4ccccc4)c3)C[C@H]2C(=O)N[C@@H]2CCCN(C(=O)C3CCCCC3)C2)C1` [I-215], the IC50 was 1000 to 10000 nM.
As for `C[C@@H](OCC1CCCCC1)[C@H](NC(=O)[C@@H]1CN(C(=O)c2ccn[nH]2)CC12CN(C(=O)[C@H]1CC1(C)C)C2)C(=O)N1CCCCC1` [I-216], the IC50 was in the range of 100 to 1000 nM.
As to `C[C@@H](OCC1CCCCC1)[C@H](NC(=O)[C@@H]1CN(C(=O)c2ccns2)CC12CN(C(=O)[C@H]1CC1(C)C)C2)C(=O)N1CCCCC1` [I-217], the IC50 is not above 10 nM.
Turning to `C[C@@H](OCC1CCCCC1)[C@H](NC(=O)[C@@H]1CN(C(=O)c2cnn(Cc3ccccc3)c2)CC12CN(C(=O)[C@H]1CC1(C)C)C2)C(=O)N1CCC[C@@H](N)C1` [I-218], the IC50 was not above 10 nM.
In the case of `C[C@@H](OCC1CCCCC1)[C@H](NC(=O)[C@@H]1CN(C(=O)c2cnn(Cc3ccccc3)c2)CC12CN(C(=O)[C@H]1CC1(C)C)C2)C(=O)N1CCC(CN)CC1` [I-219] it was not above 10 nM.
For the molecule `C[C@@H](OCC1CCCCC1)[C@H](NC(=O)[C@@H]1CN(C(=O)c2cnn(Cc3ccccc3)c2)CC12CN(C(=O)[C@H]1CC1(C)C)C2)C(=O)N1CCC[C@H]1CN` [I-220], the IC50 was 10 to 100 nM.
Regarding `CC1(C)C[C@@H]1C(=O)N1CC2(CN(C(=O)c3cnn(Cc4ccccc4)c3)C[C@H]2C(=O)NCC2CCCCO2)C1` (stereo partly shown) [I-221], the IC50 was more than 10000 nM.
For `CC1(C)C[C@@H]1C(=O)N1CC2(CN(C(=O)c3cnn(Cc4ccccc4)c3)C[C@H]2C(=O)NC2CCNC(=O)C2)C1` (stereo partly shown) [I-223], the IC50 was more than 10000 nM.
On to `CNC(=O)[C@@H](NC(=O)[C@H]1CN(C(=O)c2scnc2C2CCCC2)CC12CN(C(=O)[C@H]1CC1(C)C)C2)[C@@H](C)OCC1CCCCC1` [I-224A], for which the IC50 lay within 1000 to 10000 nM.
For `CNC(=O)[C@@H](NC(=O)[C@@H]1CN(C(=O)c2scnc2C2CCCC2)CC12CN(C(=O)[C@H]1CC1(C)C)C2)[C@@H](C)OCC1CCCCC1` [I-224B], the IC50 was more than 10000 nM.
Take `CNC(=O)[C@H](CSCc1ccccc1)NC(=O)[C@@H]1CN(C(=O)c2cnn(Cc3ccccc3)c2)CC12CN(C(=O)[C@H]1CC1(C)C)C2` [I-225]: the IC50 was 100 to 1000 nM.
As for `CNC(=O)[C@H](CS(=O)(=O)Cc1ccccc1)NC(=O)[C@@H]1CN(C(=O)c2cnn(Cc3ccccc3)c2)CC12CN(C(=O)[C@H]1CC1(C)C)C2` [I-226], the figure is 1000 to 10000 nM; as for `CNC(=O)[C@@H](NC(=O)[C@@H]1CN(C(=O)c2sc(C(C)C)nc2C)CC12CN(C(=O)[C@H]1CC1(C)C)C2)[C@@H](C)OCC1CCCCC1` [I-227A], 100 to 1000 nM; as for `CNC(=O)[C@@H](NC(=O)[C@H]1CN(C(=O)c2sc(C(C)C)nc2C)CC12CN(C(=O)[C@H]1CC1(C)C)C2)[C@@H](C)OCC1CCCCC1` [I-227B], more than 10000 nM.
Regarding `C[C@@H](OCC1CCC(F)(F)CC1)[C@H](NC(=O)[C@@H]1CN(C(=O)c2cn[nH]c2)CC12CN(C(=O)[C@H]1CC1(C)C)C2)C(=O)N1CCC(F)(F)CC1` [I-228A], the IC50 was not above 10 nM.
`C[C@@H](OCC1CCC(F)(F)CC1)[C@H](NC(=O)[C@H]1CN(C(=O)c2cn[nH]c2)CC12CN(C(=O)[C@H]1CC1(C)C)C2)C(=O)N1CCC(F)(F)CC1` [I-228B]: the IC50 was 100 to 1000 nM.
For `CNC(=O)[C@@H](NC(=O)[C@@H]1CN(C(=O)c2cnc(C(C)(C)C)s2)CC12CN(C(=O)[C@H]1CC1(C)C)C2)[C@@H](C)OCC1CCCCC1` [I-229A], the IC50 was more than 10000 nM.
Take `CNC(=O)[C@@H](NC(=O)[C@H]1CN(C(=O)c2cnc(C(C)(C)C)s2)CC12CN(C(=O)[C@H]1CC1(C)C)C2)[C@@H](C)OCC1CCCCC1` [I-229B]: the IC50 is more than 10000 nM.
